Measurements published in patent US8575158B2, “1-phenyl-substituted heterocyclyl derivatives and their use as prostaglandin D2 receptor modulators” (Actelion Pharmaceuticals Ltd., priority 2010, dated 2013).

Molecular target: T1, hCRTH2 receptor (Homo sapiens, UniProt Q9Y5Y4)
T1 construct: expressed in transfected cells; host or cells: HEK293
T1 sequence (Q9Y5Y4 1-395): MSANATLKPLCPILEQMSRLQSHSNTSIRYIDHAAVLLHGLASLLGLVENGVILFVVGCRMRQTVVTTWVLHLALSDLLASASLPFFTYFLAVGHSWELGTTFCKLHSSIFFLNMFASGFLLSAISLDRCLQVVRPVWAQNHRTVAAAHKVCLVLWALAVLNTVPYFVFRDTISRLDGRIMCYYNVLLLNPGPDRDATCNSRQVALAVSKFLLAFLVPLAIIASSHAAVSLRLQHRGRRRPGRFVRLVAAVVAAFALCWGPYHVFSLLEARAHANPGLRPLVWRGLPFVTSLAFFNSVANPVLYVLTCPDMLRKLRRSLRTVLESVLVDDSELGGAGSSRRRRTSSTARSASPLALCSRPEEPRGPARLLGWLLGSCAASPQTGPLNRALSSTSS
Test: Radioligand displacement assay (3H-PGD2) on hCRTH2 receptor membranes
Assay type: binding
Settings: antagonistic activity

[1] = 3H-PGD2 radioligand displacement, HEK293-hCRTH2 membranes
[2] = radioligand displacement (3H-PGD2), hCRTH2 receptor membranes
[3] = 3H-PGD2 displacement on HEK293-hCRTH2 membrane fragments

Structure (SMILES)	IC50 [1] [nM]	IC50 [3] [nM]	further results
O=C(O)COc1ccc(Cl)cc1C1c2ccccc2CCN1C(=O)CCN1C(=O)COc2ccc(Cl)cc21 (racemic) [Example 442]	347	–	–
O=C(OCc1ccccc1)N1CCc2ccccc2C1c1cc(Cl)ccc1OCc1cc(O)no1 (racemic) [Example 573, (±)-1-[5-Chloro-2-(3-hydroxy-isoxazol-5-ylmethoxy)-phenyl]-3,4-dihydro-1H-isoquinoline-2-carboxylic acid benzyl ester]	–	–	IC50 [2]: 15.3 nM
Cc1nn(CCC(=O)N2Cc3ccccc3C2c2cc(Cl)ccc2OCC(=O)O)c2c(F)cccc12 (single isomer, unassigned) [Example 530]	101	–	–
Cc1ccc2onc(CC(=O)N3CCc4ccccc4C3c3cc(Cl)ccc3OCC(=O)O)c2c1 (racemic) [Example 100, (±)-(4-Chloro-2-{2-[2-(5-methyl-benzo[d]isoxazol-3-yl)-acetyl]-1,2,3,4-tetrahydro-isoquinolin-1-yl}-phenoxy)-acetic acid]	–	205	–
Cc1[nH]c2ccccc2c1CCC(=O)N1Cc2ccccc2C1c1cc(Cl)ccc1OCC(=O)O (racemic) [Example 510]	180	–	–
Cc1ccccc1/C=C/C(=O)N1CCc2ccccc2C1c1cc(F)ccc1OCC(=O)O (racemic) [Example 142, (±)-{4-Fluoro-2-[2-((E)-3-o-tolyl-acryloyl)-1,2,3,4-tetrahydro-isoquinolin-1-yl]-phenoxy}-acetic acid]	–	349	–
O=C(O)COc1ccc(Cl)cc1C1c2ccccc2CCN1C(=O)OCc1cccc(C(F)(F)F)c1 (racemic) [Example 240]	–	18.6	–
Cc1ccccc1CCC(=O)N1Cc2ccccc2C1c1cc(Cl)ccc1OCC(=O)O (racemic) [Example 506]	78.8	–	–
O=C(O)COc1ccc(Cl)cc1C1c2ccccc2CCN1C(=O)OCc1cccc(Cl)c1Cl (racemic) [Example 242]	–	1.07	–
COCCOC(=O)N1CCc2ccccc2C1c1cc(F)ccc1OCC(=O)O (racemic) [Example 172]	–	59.8	–
O=C(O)COc1ccc(Cl)cc1C1c2ccc(F)cc2CCN1C(=O)C1CC1c1ccccc1Cl (mixture of isomers) [Example 430, (±)-(4-Chloro-2-{2-[2-(trans-2-chloro-phenyl)-cyclopropanecarbonyl]-6-fluoro-1,2,3,4-tetrahydro-isoquinolin-1-yl}-phenoxy)-acetic acid]	9.37	–	–
Cc1ccc(OCC(=O)N2CCc3ccccc3C2c2cc(Cl)ccc2OCC(=O)O)c(C)n1 (racemic) [Example 75, (±)-(4-Chloro-2-{2-[2-(2,6-dimethyl-pyridin-3-yloxy)-acetyl]-1,2,3,4-tetrahydro-isoquinolin-1-yl}-phenoxy)-acetic acid]	–	3.68	–
O=C(O)COc1cc2c(cc1C1c3ccccc3CCN1C(=O)OCc1ccccc1)OCO2 (racemic) [Example 23, (±)-1-(6-Carboxymethoxy-benzo[1,3]dioxol-5-yl)-3,4-dihydro-1H-isoquinoline-2-carboxylic acid benzyl ester]	–	227	–
O=C(O)COc1ccc(F)cc1C1c2ccccc2CCN1C(=O)Cc1noc2ccccc12 (racemic) [Example 45, (±)-{2-[2-(2-Benzo[d]isoxazol-3-yl-acetyl)-1,2,3,4-tetrahydro-isoquinolin-1-yl]-4-fluoro-phenoxy}-acetic acid]	–	369	–
O=C(O)COc1ccc(Cl)cc1[C@@H]1c2ccc(F)c(F)c2CCN1C(=O)OCn1ncc2ccccc21 [Example 322, (S)-1-(2-Carboxymethoxy-5-chloro-phenyl)-5,6-difluoro-3,4-dihydro-1H-isoquinoline-2-carboxylic acid indazol-1-ylmethyl ester]	0.53	–	–
Cc1ccccc1OCC(=O)N1CCc2ccccc2C1c1cc(F)ccc1OCC(=O)O (racemic) [Example 136, (±)-{4-Fluoro-2-[2-(2-o-tolyloxy-acetyl)-1,2,3,4-tetrahydro-isoquinolin-1-yl]-phenoxy}-acetic acid]	–	119	–
O=C(O)COc1ccc(Cl)cc1C1c2ccccc2CCN1C(=O)COc1ccc(C(F)(F)F)nc1 (racemic) [Example 481]	143	–	–
Cn1nc(COC(=O)N2CCc3c(ccc(F)c3F)[C@H]2c2cc(Cl)ccc2OCC(=O)O)c2ccccc21 [Example 321, (S)-1-(2-Carboxymethoxy-5-chloro-phenyl)-5,6-difluoro-3,4-dihydro-1H-isoquinoline-2-carboxylic acid 1-methyl-1H-indazol-3-ylmethyl ester]	1.84	–	–
O=C(O)COc1ccc(F)cc1C1c2ccccc2CCN1C(=O)CCc1cccc(Cl)c1 (racemic) [Example 132, (±)-(2-{2-[3-(3-Chloro-phenyl)-propionyl]-1,2,3,4-tetrahydro-isoquinolin-1-yl}-4-fluoro-phenoxy)-acetic acid]	–	86	–
O=C(O)COc1ccc(F)cc1C1c2ccccc2CCN1C(=O)OCc1ccccc1 (racemic) [Example 1, (±)-1-(2-Carboxymethoxy-5-fluoro-phenyl)-3,4-dihydro-1H-isoquinoline-2-carboxylic acid benzyl ester]	–	7.6	–

Structure (SMILES)	IC50 [1] [nM]	IC50 [3] [nM]	further results
O=C(O)COc1ccc(Cl)cc1C1c2ccccc2CCN1C(=O)OCc1cc(F)ccc1Cl (racemic) [Example 260]	–	15.1	–
N#Cc1ccc(OCC(=O)O)c(C2c3ccc(F)c(F)c3CCN2C(=O)OCc2ccccc2)c1 (racemic) [Example 16, (±)-1-(2-Carboxymethoxy-5-cyano-phenyl)-5,6-difluoro-3,4-dihydro-1H-isoquinoline-2-carboxylic acid benzyl ester]	–	4.34	–
Cc1cc(COC(=O)N2CCc3c(ccc(F)c3F)[C@H]2c2cc(Cl)ccc2OCC(=O)O)on1 [Example 305, (S)-1-(2-Carboxymethoxy-5-chloro-phenyl)-5,6-difluoro-3,4-dihydro-1H-isoquinoline-2-carboxylic acid 3-methyl-isoxazol-5-ylmethyl ester]	2.13	–	–
O=C(O)COc1ccc(Cl)cc1C1c2ccccc2CCN1C(=O)OCc1ccc(Cl)cc1 (racemic) [Example 272]	–	17.1	–
Cc1cnn(COC(=O)N2CCc3c(ccc(F)c3F)[C@H]2c2cc(Cl)ccc2OCC(=O)O)c1 [Example 317, (S)-1-(2-Carboxymethoxy-5-chloro-phenyl)-5,6-difluoro-3,4-dihydro-1H-isoquinoline-2-carboxylic acid 4-methyl-pyrazol-1-ylmethyl ester]	14.7	–	–
O=C(O)COc1ccc(Cl)cc1C1c2ccccc2CCN1C(=O)OCc1cccc(F)c1 (racemic) [Example 238]	–	12.6	–
O=C(O)COc1ccc(Cl)cc1[C@@H]1c2ccccc2CCN1C(=O)OCc1cnccn1 [Example 282, (S)-1-(2-Carboxymethoxy-5-chloro-phenyl)-3,4-dihydro-1H-isoquinoline-2-carboxylic acid pyrazin-2-ylmethyl ester]	–	3.96	–
Cc1c(CCC(=O)N2CCc3ccccc3C2c2cc(Cl)ccc2OCC(=O)O)c2ccccc2n1C (racemic) [Example 457]	60.8	–	–
O=C(O)COc1ccc(F)cc1C1c2ccccc2CN1C(=O)OCc1ccccc1 (racemic) [Example 499]	25.4	–	–
O=C(O)COc1ccc(Cl)cc1C1c2ccccc2CCN1C(=O)CCn1ccc2ncccc21 (racemic) [Example 381]	31.6	–	–
O=C(O)COc1ccc(Cl)cc1[C@@H]1c2ccc(F)cc2CCN1C(=O)OCCc1ccccc1 [Example 335, (S)-1-(2-Carboxymethoxy-5-chloro-phenyl)-6-fluoro-3,4-dihydro-1H-isoquinoline-2-carboxylic acid phenethyl ester]	13.3	–	–
N#Cc1ncccc1OCC(=O)N1CCc2ccccc2C1c1cc(Cl)ccc1OCC(=O)O (racemic) [Example 480]	104	–	–
Cc1ccc(OCC(=O)N2CCc3cc(F)ccc3C2c2cc(Cl)ccc2OCC(=O)O)c(C)n1 (racemic) [Example 432]	40.6	–	–
O=C(OCc1ccccc1)N1CCc2ccccc2C1c1cc(Cl)ccc1OCc1nnn[nH]1 (stereo not shown) [Example 570, (γ)-1-[5-Chloro-2-(1H-tetrazol-5-ylmethoxy)-phenyl]-3,4-dihydro-1H-isoquinoline-2-carboxylic acid benzyl ester]	–	–	IC50 [2]: 355 nM
O=C(O)COc1ccc(Cl)cc1C1c2ccccc2CCN1C(=O)CCn1nc(Cl)c2ccccc21 (racemic) [Example 383]	8.5	–	–
O=C(O)COc1ccc(Cl)cc1C1c2ccccc2CN1C(=O)CCn1ncc2cccc(F)c21 (single isomer, unassigned) [Example 537, (4-Chloro-2-{2-[3-(7-fluoro-indazol-1-yl)-propionyl]-2,3-dihydro-1H-isoindol-1-yl}-phenoxy)-acetic acid]	25.8	–	–
O=C(O)COc1ccc(F)cc1C1c2ccccc2CCN1C(=O)COc1ccccc1Cl (racemic) [Example 138, (±)-(2-{2-[2-(2-Chloro-phenoxy)-acetyl]-1,2,3,4-tetrahydro-isoquinolin-1-yl}-4-fluoro-phenoxy)-acetic acid]	–	101	–
O=C(O)COc1ccc(Cl)cc1C1c2ccccc2CCN1C(=O)COc1cncc(F)c1 (racemic) [Example 478]	232	–	–
O=C(O)COc1ccc(F)cc1C1c2ccc(F)c(F)c2CCN1C(=O)OCc1ccccc1 (racemic) [Example 14, (±)-1-(2-Carboxymethoxy-5-fluoro-phenyl)-5,6-difluoro-3,4-dihydro-1H-isoquinoline-2-carboxylic acid benzyl ester]	–	18.8	–
O=C(O)COc1ccc(F)cc1C1c2ccccc2CCN1C(=O)NCc1ccccc1 (racemic) [Example 199]	–	54	–
